Measurements: US20060289019A1, “Information method and system for generating data for optimizing a medical treatment, and equipment used in this system” (IPPM HOLDING SA, priority 2005, published 2006)

Experiments:
[1] = male, human, in vivo
Procedure: A patient suffering from schizo-affective disorder and from dual personality disorder reacts correctly to clozapine (clozaril, 600 mg/day, blood concentration: 502 ng/mL). They are also treated with lithium (eskalith, 900 mg/day). […] After 11 days the patient had to be admitted to the emergency department because they had too high a blood level of clozapine (2112 ng/mL).
Thus, the DEM will transfer the pharmacogenetic data from the DGSB. It will find, according to the pharmacokinetic data and studies on clozapine-fluvoxamine interaction, an appropriate function and the corresponding statistical values. […] The dosage of fluvoxamine is sought to be maintained constant. Still with reference to FIG. 3, the straight line which is of interest therefore, is that for which the blood level is 5 μM. […] The equation of this straight line (according to data taken from a publication) is y=3.7×/1.8 ? x=1.8y/3.7. Therefore if y=502 ng/mL then x=502*1.8/3.7=244 ng/mL. This means that the current dosage would need to be reduced by at least a half in order to avoid too great an interaction between the two products and especially to prevent a worrying blood level of clozapine in the blood. This optimization reasoning will be carried out by the OS as a function of the data which are sent to it by the DEM.

[2] = test system: clozapine N-demethylation; conditions: cited from earlier work

Structure (SMILES)	clozapine blood level x calculated from straight line x=1.8y/3.7 for y=502 ng/mL [1] [ng/mL]	clozapine N-demethylation inhibitor strength [2]
CN1CCN(C2=Nc3cc(Cl)ccc3Nc3ccccc32)CC1 [clozapine]	244	
COCCCC/C(=N\OCCN)c1ccc(C(F)(F)F)cc1 [fluvoxamine]		strong
